Source: BigSolDB 2.1

CN(C)NC(=O)CCC(=O)O
solubility (mole fraction) (in 2-butoxyethanol, 283.15 K): 0.000247 | solubility (mole fraction) (in 2-butoxyethanol, 288.15 K): 0.000346 | solubility (mole fraction) (in 2-butoxyethanol, 293.15 K): 0.000471 | solubility (mole fraction) (in 2-butoxyethanol, 298.15 K): 0.000632 | solubility (mole fraction) (in 2-butoxyethanol, 303.15 K): 0.000905 | solubility (mole fraction) (in 2-butoxyethanol, 308.15 K): 0.00126 | solubility (mole fraction) (in 2-butoxyethanol, 313.15 K): 0.00162 | solubility (mole fraction) (in 2-butoxyethanol, 318.15 K): 0.00213 | solubility (mole fraction) (in 2-butoxyethanol, 323.15 K): 0.00278 | solubility (mole fraction) (in 2-ethoxyethanol, 283.15 K): 0.00176 | solubility (mole fraction) (in 2-ethoxyethanol, 288.15 K): 0.00228 | solubility (mole fraction) (in 2-ethoxyethanol, 293.15 K): 0.00291 | solubility (mole fraction) (in 2-ethoxyethanol, 298.15 K): 0.00382 | solubility (mole fraction) (in 2-ethoxyethanol, 303.15 K): 0.00492 | solubility (mole fraction) (in 2-ethoxyethanol, 308.15 K): 0.00621 | solubility (mole fraction) (in 2-ethoxyethanol, 313.15 K): 0.00767 | solubility (mole fraction) (in 2-ethoxyethanol, 318.15 K): 0.00954 | solubility (mole fraction) (in 2-ethoxyethanol, 323.15 K): 0.012 | solubility (mole fraction) (in 2-methoxyethanol, 283.15 K): 0.00398 | solubility (mole fraction) (in 2-methoxyethanol, 288.15 K): 0.00519 | solubility (mole fraction) (in 2-methoxyethanol, 293.15 K): 0.00634 | solubility (mole fraction) (in 2-methoxyethanol, 298.15 K): 0.00784 | solubility (mole fraction) (in 2-methoxyethanol, 303.15 K): 0.0096 | solubility (mole fraction) (in 2-methoxyethanol, 308.15 K): 0.0116 | solubility (mole fraction) (in 2-methoxyethanol, 313.15 K): 0.014 | solubility (mole fraction) (in 2-methoxyethanol, 318.15 K): 0.0169 | solubility (mole fraction) (in 2-methoxyethanol, 323.15 K): 0.0203 | solubility (mole fraction) (in 2-propoxyethanol, 283.15 K): 0.000405 | solubility (mole fraction) (in 2-propoxyethanol, 288.15 K): 0.000617 | solubility (mole fraction) (in 2-propoxyethanol, 293.15 K): 0.000794 | solubility (mole fraction) (in 2-propoxyethanol, 298.15 K): 0.00108 | solubility (mole fraction) (in 2-propoxyethanol, 303.15 K): 0.00144 | solubility (mole fraction) (in 2-propoxyethanol, 308.15 K): 0.00184 | solubility (mole fraction) (in 2-propoxyethanol, 313.15 K): 0.00233 | solubility (mole fraction) (in 2-propoxyethanol, 318.15 K): 0.00304 | solubility (mole fraction) (in 2-propoxyethanol, 323.15 K): 0.00393 | solubility (mole fraction) (in DMF, 283.15 K): 0.0207 | solubility (mole fraction) (in DMF, 288.15 K): 0.0245 | solubility (mole fraction) (in DMF, 293.15 K): 0.0293 | solubility (mole fraction) (in DMF, 298.15 K): 0.0329 | solubility (mole fraction) (in DMF, 303.15 K): 0.0388 | solubility (mole fraction) (in DMF, 308.15 K): 0.0449 | solubility (mole fraction) (in DMF, 313.15 K): 0.0503 | solubility (mole fraction) (in DMF, 318.15 K): 0.0568 | solubility (mole fraction) (in DMF, 323.15 K): 0.0645 | solubility (mole fraction) (in NMP, 283.15 K): 0.037 | solubility (mole fraction) (in NMP, 288.15 K): 0.042 | solubility (mole fraction) (in NMP, 293.15 K): 0.0481 | solubility (mole fraction) (in NMP, 298.15 K): 0.0552 | solubility (mole fraction) (in NMP, 303.15 K): 0.063 | solubility (mole fraction) (in NMP, 308.15 K): 0.0714 | solubility (mole fraction) (in NMP, 313.15 K): 0.0813 | solubility (mole fraction) (in NMP, 318.15 K): 0.09 | solubility (mole fraction) (in NMP, 323.15 K): 0.1 | solubility (mole fraction) (in acetonitrile, 283.15 K): 0.000172 | solubility (mole fraction) (in acetonitrile, 288.15 K): 0.000226 | solubility (mole fraction) (in acetonitrile, 293.15 K): 0.000296 | solubility (mole fraction) (in acetonitrile, 298.15 K): 0.000386 | solubility (mole fraction) (in acetonitrile, 303.15 K): 0.000503 | solubility (mole fraction) (in acetonitrile, 308.15 K): 0.000653 | solubility (mole fraction) (in acetonitrile, 313.15 K): 0.000846 | solubility (mole fraction) (in acetonitrile, 318.15 K): 0.00109 | solubility (mole fraction) (in acetonitrile, 323.15 K): 0.00141 | solubility (mole fraction) (in ethanol, 283.15 K): 0.00275 | solubility (mole fraction) (in ethanol, 288.15 K): 0.00354 | solubility (mole fraction) (in ethanol, 293.15 K): 0.00437 | solubility (mole fraction) (in ethanol, 298.15 K): 0.00551 | solubility (mole fraction) (in ethanol, 303.15 K): 0.0069 | solubility (mole fraction) (in ethanol, 308.15 K): 0.00848 | solubility (mole fraction) (in ethanol, 313.15 K): 0.0102 | solubility (mole fraction) (in ethanol, 318.15 K): 0.0128 | solubility (mole fraction) (in ethanol, 323.15 K): 0.0164 | solubility (mole fraction) (in isopropanol, 283.15 K): 0.000326 | solubility (mole fraction) (in isopropanol, 288.15 K): 0.00048 | solubility (mole fraction) (in isopropanol, 293.15 K): 0.000752 | solubility (mole fraction) (in isopropanol, 298.15 K): 0.0011 | solubility (mole fraction) (in isopropanol, 303.15 K): 0.00159 | solubility (mole fraction) (in isopropanol, 308.15 K): 0.0022 | solubility (mole fraction) (in isopropanol, 313.15 K): 0.00302 | solubility (mole fraction) (in isopropanol, 318.15 K): 0.00433 | solubility (mole fraction) (in isopropanol, 323.15 K): 0.00579 | solubility (mole fraction) (in methanol, 283.15 K): 0.00823 | solubility (mole fraction) (in methanol, 288.15 K): 0.0097 | solubility (mole fraction) (in methanol, 293.15 K): 0.0116 | solubility (mole fraction) (in methanol, 298.15 K): 0.014 | solubility (mole fraction) (in methanol, 303.15 K): 0.0167 | solubility (mole fraction) (in methanol, 308.15 K): 0.0196 | solubility (mole fraction) (in methanol, 313.15 K): 0.0227 | solubility (mole fraction) (in methanol, 318.15 K): 0.026 | solubility (mole fraction) (in methanol, 323.15 K): 0.0301 | solubility (mole fraction) (in n-pentanol, 283.15 K): 0.000149 | solubility (mole fraction) (in n-pentanol, 288.15 K): 0.000191 | solubility (mole fraction) (in n-pentanol, 293.15 K): 0.00026 | solubility (mole fraction) (in n-pentanol, 298.15 K): 0.000344 | solubility (mole fraction) (in n-pentanol, 303.15 K): 0.000477 | solubility (mole fraction) (in n-pentanol, 308.15 K): 0.000634 | solubility (mole fraction) (in n-pentanol, 313.15 K): 0.000821 | solubility (mole fraction) (in n-pentanol, 318.15 K): 0.00109 | solubility (mole fraction) (in n-pentanol, 323.15 K): 0.00145 | solubility (mole fraction) (in n-propanol, 283.15 K): 0.000944 | solubility (mole fraction) (in n-propanol, 288.15 K): 0.00121 | solubility (mole fraction) (in n-propanol, 293.15 K): 0.00161 | solubility (mole fraction) (in n-propanol, 298.15 K): 0.00217 | solubility (mole fraction) (in n-propanol, 303.15 K): 0.00285 | solubility (mole fraction) (in n-propanol, 308.15 K): 0.00367 | solubility (mole fraction) (in n-propanol, 313.15 K): 0.00471 | solubility (mole fraction) (in n-propanol, 318.15 K): 0.00615 | solubility (mole fraction) (in n-propanol, 323.15 K): 0.00768
